According to patent publication US6696476B2, “Pyranoindazoles and their use for the treatment of glaucoma” (Alcon, Inc., priority 2001, dated 2004):
pEC50, pIC50: −log10 of the molar value. Structures can show the parent of a compound that is named as a salt. Where two headings read alike, the source gives them in different places.

Columns and labels:
5-HT2A Receptor [1] = target: T1, 5-HT2A Receptor (Rattus norvegicus, UniProt P14842); experiment: 5-HT2 Receptor Binding Assay ([125I]DOI competition); parameters: species or system rat or human; conditions: 5-HT2A receptor binding; [125I]DOI displacement, cerebral cortex homogenates
Protocol: Aliquots of post mortem rat or human cerebral cortex homogenates (400 μL) dispersed in 50 mM Tris HCl buffer (pH 7.4) are incubated with [^125I]DOI (80 pM final) in the absence or presence of methiothepin (10 μM final) to define total and non-specific binding, respectively, in a total volume of 0.5 mL. The assay mixture is incubated for 1 hour at 23° C. in polypropylene tubes and the assays terminated by rapid vacuum filtration over Whatman GF/B glass fiber filters previously soaked in 0.3% polyethyleneimine using ice-cold buffer. Test compounds (at different concentrations) are substituted for methiothepin. Filter-bound radioactivity is determined by scintillation spectrometry on a beta counter. The data are analyzed using a non-linear, iterative curve-fitting computer program [Trends Pharmacol. Sci., 16, 413 (1995)] to determine the compound affinity parameter. The concentration of the compound needed to inhibit the [^125I]DOI binding by 50% of the maximum is termed the IC50 or Ki value.

5-HT2A Receptor [2] = target: T1, 5-HT2A Receptor; experiment: 5-HT2 Functional Assay: [Ca2+]i Mobilization (FLIPR, A7r5 cells); type: cell-based; parameters: endogenous in cells; host or cells: A7r5 rat vascular smooth muscle cells; conditions: for pEC50: [Ca2+]i mobilization, A7r5 rat vascular smooth muscle cells; for Emax: read-out: Efficacy (Emax, %)
Protocol: The receptor-mediated mobilization on intracellular calcium ([Ca^2+]i) was studied using the Fluorescence Imaging Plate Reader (FLIPR) instrument. Rat vascular smooth muscle cells, A7r5, were grown in a normal media of DMEM/10% FBS and 10 μg/mL gentamycin. Confluent cell monolayers were trypsinized, pelleted, and re-suspended in normal media. Cells were seeded in a 50 μL volume at a density of 20,000 cells/well in a black wall, 96-well tissue culture plate and grown for 2 days.
On the day of the experiment, one vial of FLIPR Calcium Assay Kit dye was re-suspended in 50 mL of a FLIPR buffer consisting of Hank's Balanced Salt Solution (HBSS), 20 mM HEPES, and 2.5 mM probenecid, pH 7.4. Cells were loaded with the calcium-sensitive dye by addition of an equal volume (50 μL) to each well of the 96-well plate and incubated with dye for 1 h at 23° C.
Compounds were diluted 1:50 in 20% DMSO/20% Ethanol. For “hit” screening, compounds were further diluted 1:10 in FLIPR buffer and tested at a final concentration of 10 μM.
The compound plate and cell plate were placed in the FLIPR instrument. At the beginning of an experimental run, a signal test was performed to check the basal fluorescence signal from the dye-loaded cells and the uniformity of the signal across the plate. The basal fluorescence was adjusted between 8000-12000 counts by modifying the exposure time, the camera F-stop, or the laser power. Instrument settings for a typical assay were the following: laser power 0.3-0.6 W, camera F-stop F/2, and exposure time 0.4 sec. An aliquot (25 μL) of the test compound was added to the existing 100 μL dye-loaded cells at a dispensing speed of 50 μL/sec. Fluorescence data were collected in real-time at 1.0 sec intervals for the first 60 secs and at 6.0 sec intervals for an additional 120 secs.

IOP [3] = conditions: monkey; attributed to α1A receptor activity; cited from earlier work
intraocular pressure = experiment: IOP Response in Conscious Cynomolgus Monkeys; type: in vivo
IOP [4] = conditions: rabbits; cited from earlier work
[5] = percentage of a maximum 5-HT-induced response, A7r5 cells
[6] = 3 hours after dose, dose 300 μg
[7] = 6 hours after dose, dose 300 μg

T1 sequence (P14842 whole entry): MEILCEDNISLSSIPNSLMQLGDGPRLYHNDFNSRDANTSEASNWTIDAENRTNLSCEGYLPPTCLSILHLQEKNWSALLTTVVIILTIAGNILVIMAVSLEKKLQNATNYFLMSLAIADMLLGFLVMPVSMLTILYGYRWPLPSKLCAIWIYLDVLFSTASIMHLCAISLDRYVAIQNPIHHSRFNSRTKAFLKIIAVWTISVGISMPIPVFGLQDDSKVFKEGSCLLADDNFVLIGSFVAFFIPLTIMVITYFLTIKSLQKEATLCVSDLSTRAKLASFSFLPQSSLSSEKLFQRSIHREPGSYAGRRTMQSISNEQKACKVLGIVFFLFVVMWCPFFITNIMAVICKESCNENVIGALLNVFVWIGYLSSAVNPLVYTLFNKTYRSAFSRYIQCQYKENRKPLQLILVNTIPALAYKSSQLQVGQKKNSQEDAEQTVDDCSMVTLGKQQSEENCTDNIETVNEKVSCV

CC(N)Cn1ncc2ccc3c(c21)CC(O)CO3 (stereo not drawn)
melting point: 124 to 125 °C

C[C@H](N)Cn1ncc2ccc3c(c21)C(N)C(O)CO3 (stereo partly drawn)
melting point: 84 to 88 °C

COC1c2c(ccc3cnn(C[C@H](C)N)c23)OCC1O (stereo partly drawn)
melting point: 105 to 108 °C

C[C@@H](N)Cn1ncc2ccc3c(c21)CC(O)CO3.Cl (stereo partly drawn)
melting point: 82 to 86 °C

C[C@H](N)Cc1n[nH]c2ccc3c(c12)CCCO3 (as salt: hydrochloride) [Example 17, (S)-1-Methyl-2-(3,7,8,9-tetrahydro-pyrano[3,2-e]indazol-1-yl)-ethylamine]
melting point: 235 to 240 °C

C[C@H](N)Cn1ncc2ccc3c(c21)[C@H](O)[C@H](O)CO3 (relative stereo) [Example 7, (8R*,9S*)-1-((S)-2-Amino-propyl)-1,7,8,9-tetrahydro-pyrano[2,3-g]indazole-8,9-diol]
pIC50 (5-HT2A Receptor [1]): 8.43
melting point: 115 to 117 °C
pEC50 (5-HT2A Receptor [2]): 6.71
Emax (5-HT2A Receptor [2]; [5]): 85%

COc1ccccc1N1CCN(CCCNc2c(C)c(=O)n(C)c(=O)n2C)CC1 [5-methylurapidil]
effect on IOP (IOP [3]): lowers IOP

COc1cc(C[C@@H](C)N)c(OC)cc1I [(R)-DOI, reference compound]
Percent IOP Reduction ± SEM (intraocular pressure; 1 hour after dose, dose 100 μg): 11.0 ± 4.98%
Percent IOP Reduction ± SEM (intraocular pressure; 3 hours after dose, dose 100 μg): 25.3 ± 2.97%
Percent IOP Reduction ± SEM (intraocular pressure; 6 hours after dose, dose 100 μg): 34.4 ± 4.98%

C[C@H](N)Cn1ncc2ccc3c(c21)CC(O)CO3 (stereo partly drawn) [Example 3, 1-((S)-2-Aminopropyl)-1,7,8,9-tetrahydro-pyrano[2,3-g]indazol-8-ol]
pIC50 (5-HT2A Receptor [1]): 8.66
melting point: 46 to 51 °C
pEC50 (5-HT2A Receptor [2]): 6.84
Emax (5-HT2A Receptor [2]; [5]): 85%

C[C@H](N)Cn1ncc2ccc3c(c21)C[C@@H](O)CO3 [Example 4, (R)-1-((S)-2-Aminopropyl)-1,7,8,9-tetrahydro-pyrano[2,3-g]indazol-8-ol]
Percent IOP Reduction ± SEM (intraocular pressure; 1 hour after dose, dose 300 μg): 7.68 ± 2.91%
Percent IOP Reduction ± SEM (intraocular pressure; [6]): 25.8 ± 3.53%
Percent IOP Reduction ± SEM (intraocular pressure; [7]): 30.2 ± 4.48%
pIC50 (5-HT2A Receptor [1]): 8.65
melting point: 126 to 128 °C
pEC50 (5-HT2A Receptor [2]): 7.19
Emax (5-HT2A Receptor [2]; [5]): 92%

C[C@H](N)Cn1ncc2ccc3c(c21)C[C@H](O)CO3 [Example 5, (S)-1-((S)-2-Aminopropyl)-1,7,8,9-tetrahydro-pyrano[2,3-g]indazol-8-ol]
Percent IOP Reduction ± SEM (intraocular pressure; 1 hour after dose, dose 300 μg): 7.9 ± 4.06%
Percent IOP Reduction ± SEM (intraocular pressure; [6]): 17.3 ± 3.87%
Percent IOP Reduction ± SEM (intraocular pressure; [7]): 25.1 ± 4.76%
pIC50 (5-HT2A Receptor [1]): 8.46
pEC50 (5-HT2A Receptor [2]): 6.65
Emax (5-HT2A Receptor [2]; [5]): 70%

NCCc1c[nH]c2ccc(O)cc12 [Example 5-HT, 5-Hyroxytryptamine, reference compound]
Efficacy (Emax, %) (5-HT2A Receptor [2]; [5]): 101%

C[C@H](N)Cn1ncc2ccc3c(c21)C[C@@H](N)CO3.Cl.Cl.Cl [Example 6, (R)-1-((S)-2-Amino-propyl)-1,7,8,9-tetrahydro-pyrano[2,3-g]indazol-8-ylamine Trihydrochloride]
pIC50 (5-HT2A Receptor [1]): 8.18
melting point: > 300 °C
pEC50 (5-HT2A Receptor [2]): 6.76
Emax (5-HT2A Receptor [2]; [5]): 87%

C[C@H](N)Cn1ncc2ccc3c(c21)CCCO3.Cl.Cl [Example 8, (S)-2-(8,9-Dihydro-7H-pyrano[2,3-g]indazol-1-yl)-1-methyl-ethylamine Dihydrochloride]
pIC50 (5-HT2A Receptor [1]): 9.16
melting point: 95 to 98 °C
pEC50 (5-HT2A Receptor [2]): 7.05
Emax (5-HT2A Receptor [2]; [5]): 85%

CCCN(CCC)C1CCc2cccc(O)c2C1 (stereo not drawn) [Example 8-OH-DPAT, 8-hydroxydipropylaminotetralin]
effect on IOP (IOP [4]): reduces IOP

C[C@H](N)Cn1ncc2ccc3c(c21)C=CCO3 [Example 9, (S)-1-Methyl-2-(7H-pyrano[2,3-g]indazol-1-yl)-ethylamine]
pIC50 (5-HT2A Receptor [1]): 9.56
pEC50 (5-HT2A Receptor [2]): 7.38
Emax (5-HT2A Receptor [2]; [5]): 91%

C[C@H](N)Cn1ncc2ccc3c(c21)C[C@@H](OCCO)CO3.Cl.Cl [Example 13, 2-[(R)-1-((S)-2-Aminopropyl)-1,7,8,9-tetrahydro-pyrano[2,3-g]indazol-8-yloxy]-ethanol Dihydrochloride]
Percent IOP Reduction ± SEM (intraocular pressure; 1 hour after dose, dose 300 μg): 8.3 ± 2.64%
Percent IOP Reduction ± SEM (intraocular pressure; [6]): 21.4 ± 4.18%
Percent IOP Reduction ± SEM (intraocular pressure; [7]): 28.4 ± 3.36%
pIC50 (5-HT2A Receptor [1]): 8.47
melting point: > 100 °C
pEC50 (5-HT2A Receptor [2]): 6.92
Emax (5-HT2A Receptor [2]; [5]): 87%

CC(=O)NCCO[C@H]1COc2ccc3cnn(C[C@H](C)N)c3c2C1 [Example 14, N-[2-[(R)-1-((S)-2-Aminopropyl)-1,7,8,9-tetrahydropyrano[2,3-g]indazol-8-yloxy]-ethyl]acetamide]
pIC50 (5-HT2A Receptor [1]): 8.27
melting point: 165 to 166 °C
pEC50 (5-HT2A Receptor [2]): 6.69
Emax (5-HT2A Receptor [2]; [5]): 86%

C[C@H](N)Cn1ncc2ccc3c(c21)C[C@@H](OCC(N)=O)CO3 [Example 15, 2-[(R)-1-((S)-2-Aminopropyl)-1,7,8,9-tetrahydro-pyrano[2,3-g]indazol-8-yloxy]-acetamide]
pIC50 (5-HT2A Receptor [1]): 8.54
pEC50 (5-HT2A Receptor [2]): 6.75
Emax (5-HT2A Receptor [2]; [5]): 95%

C[C@H](N)Cn1ncc2ccc3c(c21)C[C@@H](OCC(=O)OC(C)(C)C)CO3 [Example 16, [(R)-1-((S)-2-Amino-propyl)-1,7,8,9-tetrahydro-pyrano[2,3-g]indazol-8-yloxy]acetic Acid Tert-butyl Ester Dihydrochloride]
pIC50 (5-HT2A Receptor [1]): 8.71
pEC50 (5-HT2A Receptor [2]): 6.37
Emax (5-HT2A Receptor [2]; [5]): 73%

C[C@H](N)Cc1n[nH]c2ccc3c(c12)CCCO3 [Example 17, (S)-1-Methyl-2-(3,7,8,9-tetrahydro-pyrano[3,2-e]indazol-1-yl)-ethylamine]
pIC50 (5-HT2A Receptor [1]): 9.10
pEC50 (5-HT2A Receptor [2]): 6.81
Emax (5-HT2A Receptor [2]; [5]): 88%
